Entries after “also recorded” stand apart in the source; their conditions may differ.

Assay type in all cases: in vivo, female Sprague-Dawley rats
Assay [1] deals with hyperactive bladder (acetic acid). Nature of the assay: Continuous CMG, hyperactive bladder induced by acetic acid (Examples 5-6). The protocol: (§1) This was followed by instillation of liposomes (LP) in saline (in the case of the former) or LP/KCl.
(§2) Intravesical bladder pressure was recorded via a transurethral catheter in adult female Sprague-Dawley rats anesthetized with urethane (1.2 g/kg) administered by subcutaneous injection (sc). Some animals were pretreated with capsaicin (125 mg/kg, sc) four days prior to the experiments. […] Parameters measured included intercontraction interval (ICI), amplitude of bladder contractions, compliance and micturition pressure threshold (PT).
(§3) Animal Preparation. Thirty-four female Sprague-Dawley rats (250-300 g) were used in this study. Animals were anesthetized with urethane (1.2 g/kg, sc). Body temperature was maintained in the physiological range using a heating lamp.
(§4) Cystometrogram (CMG). A transurethral bladder catheter (PE-50) was connected via a three-way stopcock to a pressure transducer and to a syringe pump. This was used to record intravesical pressure and to infuse solutions into the bladder. A control CMG was performed by slowly filling the bladder with saline (0.04 ml/min) to elicit repetitive voiding. The parameters recorded were amplitude, PT, compliance, and ICI of reflex bladder contractions. Measurements in each animal represented the average of 3 to 5 bladder contractions.
(§5) Induction of a Hyperactive Bladder. […] L. Cheng et al., 1993, Am. J. Physiol. 265:R132-138). The experimental design is illustrated in FIG. 7. The KCl concentration used was within the range of concentrations present in normal rat urine (M. Ohnishi et al., 2001, Toxicol. Appl. Pharmacol. 174:122-129).
(§6) Preparation of Liposomes (LP). LP were prepared as described by Kirby and Gregoriadis (C. J. Kirby and G. Gregoriadia, 1984, “A simple procedure for preparing liposomes capable of high encapsulation efficiency under mild conditions,” Liposome Technology; G. Gregnoriadis, Ed., C.R.C. Press, Inc., Boca Raton, Fla., Vol. 1, p. 20). Briefly, LP were constructed as a 2:1 molar ratio of L-α-phosphatidylcholine and cholesterol (Sigma Chemical Co., St. Louis, Mo.) to a final lipid concentration of 2 mg/ml in saline. Lipids in chloroform were dried down together in the proper ratio under nitrogen. The residues were reconstituted as LP in saline or 500 mM KCl by intense sonication.
(§7) Statistical Analyis. Statistical analyses were performed using Student's t test for paired or unpaired data, where applicable. A p-value less than 0.05 was considered significant. All data are expressed in Example 2 (below) as means±S.E.

Assay [2] deals with acute hyperactive bladder. Nature of the assay: Continuous CMG, acute hyperactive bladder model with intravesical PS and KCl (Examples 7-8). The procedure: An animal model for acute hyperactive bladder in rats was developed using intravesical infusion of PS, an agent used to break down urothelial barrier function and physiological concentrations of KCl.
Continuous CMGs were performed in urethane-anesthetized female rats. The bladder was filled (0.04 ml/min) with normal saline followed by intravesical infusion for a 60 minute period with a test solution comprising either KCl (100 or 500 mM) or PS (10 or 30 mg/ml). Following this, 10 mg/ml PS treated animals were infused intravesically with 100, 300 or 500 mM KCl. Some animals were pretreated with capsaicin ([…], sc) four days before the experiments.
Animal Preparation. The study was performed on 40 female Sprague-Dawley rats weighing 250-300 gm. Animals were anesthetized with 1.2 gm/kg urethane injected subcutaneously. Body temperature was maintained in the physiological range using a heating lamp.
Cystometrogram (CMG). PE-50 tubing (Clay-Adams, Parsippany, N.J.) was inserted into the bladder through the urethra and connected via a three-way stopcock to a pressure transducer and to a syringe pump. This was used for recording intravesical pressure and for infusing solutions into the bladder. A control CMG was performed by slowly filling the bladder with saline (0.04 ml/min) to elicit repetitive voiding. The amplitude, PT, compliance and intercontraction interval (ICI) of reflex bladder contractions were recorded. Pressure threshold (PT) represents the pressure that induces the initial bladder contraction. PT often has been used as a parameter corresponding to afferent nerve activity for the induction of reflex bladder contractions. Measurements in each animal represented the average of 3 to 5 bladder contractions.
After performing control CMGs with saline infusion, three intravesical infusion experiments were performed in parallel: (1) infusion of KCl (100 or 500 mM in saline) for one hour (N=4 in each group); (2) infusion of PS (Sigma Chemical Co.; 30 mg/ml in saline) for one hour (N=6); and (3) infusion of PS (10 mg/ml) for one hour, followed by 100, 300 or 500 mM KCl for one hour (N=6, in each subgroup). In four animals, capsaicin dissolved in a vehicle containing 10% ethanol, 10% TWEEN®80 and 80% physiological saline, at a concentration of 20 mg/ml was given subcutaneously in divided doses on 2 consecutive days. The doses included 25 and 50 mg/kg at a 12-hour interval on the first day and 50 mg/kg on the second day, as previously described (C. L. Cheng et al., 1993, Am. J. Physiol. 265:R132-138). All injections were performed under halothane anesthesia. Four days after the last dosage of capsaicin, the animals were anesthetized and treated with intravesical administration of PS (10 mg/ml) for 1 hour followed by KCl (500 mM) infusion.
Suppression of Micturition Reflex. To evaluate the direct effects of potassium on detrusor muscle, micturition reflex was blocked in 4 animals by either intravenous hexamethonium injection (25 mg/kg) (N=2) or transection of bilateral pelvic nerves (N=2).
Statistical Analysis. Statistical analyses were performed using Student's t test for paired or unpaired data, as applicable, with p<0.05 considered significant. Quantitative data are expressed in Example 8 (below) as means plus or minus standard error.

The test system of assay [3] is hyperactive bladder (PS/KCl). Nature of the assay: Continuous CMG, hyperactive bladder induced by PS/KCl (Examples 5-6). The procedure: as §1, §2, §3, §4, §5, §6, §7
[4] abbreviates: AA 1 hr in capsaicin pretreated rats, N=4.
Setting [5] is: AA 2 hr in capsaicin pretreated rats, N=4.
Setting [6] is: AA at 1 hour, capsaicin pretreated animals.
The mark [7] stands for this setting: AA at 2 hours, capsaicin pretreated animals.
The mark [8] stands for this setting: Table 2A series: saline, AA 0.1% 1 h, LP 2 h, N=6.
Setting [9] is: Table 2B series: saline, AA 0.1% 1 h, saline, N=6.
[10] abbreviates: Table 2C series: saline, LP 1 h, AA 1 h, N=6.
Where [11] appears, read: Table 1A: PS 10 mg/ml infusion 1 hour after saline, N=6.

`CC(=O)O` [AA, acetic acid]: in assay [1] (AA 0.1%, two series of experiments), the compliance reduction was 71-76%. Besides, the ICI in assay [1] (AA 1 hr in capsaicin pretreated rats (125 mg/kg sc, four days before), N=4) is 10.2 ± 3.0 min. Also, in assay [1] (setting [4]), the Amplitude is recorded as 20.9 ± 2.5 cm H2O, the Compliance is reported as 0.152±0.028 ml/cm H2O and the PT came out at 6.7 ± 0.2 cm H2O. In addition, in assay [1] (setting [5]), the Amplitude was 23.6 ± 5.7 cm H2O, the Compliance amounted to 0.082±0.024 ml/cm H2O, the ICI stood at 4.6 ± 1.2 min and the PT stood at 6.7 ± 0.7 cm H2O. For the same compound, in assay [1] (setting [6]), the ICI reduction is listed as 51% and the compliance reduction was 33%. Moreover, in assay [1] (setting [7]), the ICI decrease was found to be 78% and the compliance decrease worked out at 64%. In addition, in assay [1] (AA infusion), the “Amplitude change” value is given as “slight increase” and the “PT change” value is given as “not significantly changed”. Also, the “bladder hyperactivity in CMG tracings / summary” value in assay [1] (FIGS. 10A-10F, summary of Examples 5-6) is “elicited bladder hyperactivity”. In assay [1] (setting [8]), this compound registered an Amplitude of 36.8 ± 6.5 cm H2O, a Compliance of 0.071±0.016 ml/cm H2O, an ICI of 2.4 ± 0.5 min and a PT of 8.3 ± 0.9 cm H2O. In assay [1] (setting [9]), the Amplitude was 37.0 ± 7.0 cm H2O, the Compliance is given as 0.079±0.026 ml/cm H2O, the ICI amounted to 2.9 ± 0.9 min and the PT came to 9.1 ± 1.4 cm H2O. In assay [1] (setting [10]), this compound showed an Amplitude of 38.0 ± 1.3 cm H2O, a Compliance of 0.071 ± 0.022 ml/cm H2O, an ICI of 3.1 ± 0.8 min and a PT of 6.7 ± 0.7 cm H2O. In assay [1] (following AA infusion), the “time until irritative effect evident” value is reported as 20 to 30 min.
Take `COc1cc(CNC(=O)CCCCC=CC(C)C)ccc1O` [capsaicin, 8-methyl-N-vanillyl-6-nonenamid]: the “delay of bladder hyperactivity evoked by AA” value in assay [1] (capsaicin pretreated animals) was 0.5 to 1 h. In addition, the “delay of onset of the irritative effects of AA” value in assay [1] (pretreatment with capsaicin 125 mg/kg sc four days before) lay within 30 to 60 min. In addition, the ICI decrease in assay [2] (capsaicin pretreated animals, PS 10 mg/ml then KCl 500 mM, 2 hours of infusion) came out at 35.5%. The “delay of hyperactive bladder” value in assay [2] (capsaicin pretreated animals, sequential PS 10 mg/ml and KCl 500 mM) is reported as “about 1 hour”. The “delay of onset of irritative effects” value in assay [2] (capsaicin pretreatment, PS 10 mg/ml then KCl 500 mM) is recorded as roughly 60 min. The “PS/KCl-induced bladder hyperactivity after capsaicin pretreatment” value in assay [2] (capsaicin sc in divided doses, four days before) is listed as “suppressed PS/KCl-induced bladder hyperactivity”.
As for protamine sulfate [PS], in assay [2] (10 mg/ml PS, one hour, N=18), the Amplitude is recorded as 25.3 ± 2.0 cm H2O, the Compliance was 0.176 ± 0.013 ml/cm H2O, the ICI worked out at 17.8 ± 0.7 min and the PT came to 3.4 ± 0.9 cm H2O. Moreover, in assay [2] (30 mg/ml PS, one hour, N=6), the Amplitude worked out at 28.3 ± 3.1 cm H2O, the Compliance was 0.083 ± 0.022 ml/cm H2O, the ICI is given as 2.7 ± 0.7 min and the PT is listed as 7.8 ± 1.1 cm H2O. Besides, in assay [2] (PS 30 mg/ml), the ICI decrease was 80.6%, the PT increase was determined as 36.8%, the compliance decrease is listed as 63.6% and the “delay to irritative effect” value is given as 40 to 45 min. Besides, the “bladder hyperactivity” value in assay [2] (high concentrations of PS) is reported as “induced bladder hyperactivity (decreased ICI)”. Further, in assay [2] (low concentration of PS (10 mg/ml), one hour), the “irritative effects / CMG parameters” value is given as “not observed; also recorded: no significant change; also recorded: produced no effect”. In assay [3] (setting [11]), the Amplitude is listed as 27.5 ± 0.7 cm H2O, the Compliance was determined as 0.210 ± 0.031 ml/cm H2O, the ICI was 14.9 ± 1.7 min and the PT stood at 5.9 ± 0.9 cm H2O. The “change of ICI / CMGs” value in assay [3] (infused alone: PS 10 mg/ml or KCl 500 mM) is given as “not changed; also recorded: did not significantly change the CMGs”.
